What all share (test): NCI tumour cell line growth inhibition, 48 h
Experiment [1] has as its system PC-3 prostate.
Experiment [2] relates to T-47D breast.
For experiment [3], the system named is OVCAR-3 ovarian.
Experiment [4] deals with TK-10 renal.
For experiment [5], the system named is UACC-62 melanoma.
The subject of experiment [6] is NCI-H522 lung.
Experiment [7] deals with OVCAR-5 ovarian.
The subject of experiment [8] is SNB-19 CNS.
Experiment [9] concerns HCC-2998 colon.
Experiment [10] deals with CAKI-1 renal.
Experiment [11] deals with NCI/ADR-RES ovarian.
Experiment [12] relates to MDA-MB-231 breast.
Experiment [13] concerns MDA-N.
Experiment [14] has as its system ACHN renal.
The test system of experiment [15] is HCT-15 colon.
The test system of experiment [16] is SW-620 colon.
For experiment [17], the system named is U251 CNS.
For experiment [18], the system named is NCI-H23 lung.
In experiment [19] the test system is DU-145 prostate.

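These data come from cells grown in 96-well plates and exposed to compound for 48 hours at five concentrations. TGI is the concentration that stops growth completely.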 *1 amine or outer side, *2 acyl side, *3 side chain or, on linkers, in order; H or OH if unused. Where a SMILES comes first, the peptide text is derived from it. [ ]: non-standard residue; d: D form. The star is where a group is joined. ξ: configuration not given here. NMeY = CN[C@@H](Cc1ccc(O)cc1)C(=O)O; Ethylenediamine = C(CN[*:2])N[*:1]; ξNMeL = CNC(CC(C)C)C(=O)O; Cbz = O=C(OCc1ccccc1)*; Lac = C[C@H](O)C(=O)O; ξA = CC(N)C(=O)O

For seven compounds, TGI results are on record in PubChem BioAssay (NCI).

Consider `O=C1NC(N2CCCC(CO)C2)=N/C1=C\c1ccccc1` (stereo not given), for which the TGI in experiment [1], in [2], in experiment [3], in [4], in experiment [5] and in [6] was over 100 µM each time. Also, the TGI in experiment [7], in [8], in experiment [9], in [10], in experiment [11] and in experiment [12] was over 100 µM each time. Further, the TGI in experiment [13], in [14], in [15], in experiment [16], in experiment [17] and in experiment [18] was over 100 µM in each case. This compound registered a TGI in experiment [19] of over 100 µM.
Consider `CC(C)=NNc1snnc1C(N)=O`, for which the TGI in experiment [1], in [2], in experiment [3], in experiment [4], in experiment [5] and in [6] was over 100 µM in each case. For the same compound, the TGI in experiment [7], in [8], in experiment [9], in experiment [10], in experiment [11] and in experiment [12] was over 100 µM in each case. The TGI in [13], in [14], in [17], in [18] and in [19] was over 100 µM in each case.
With `CNCCN[C@@H]1c2cc3c(cc2[C@@H](c2cc(OC)c(O)c(OC)c2)[C@H]2C(=O)OC[C@@H]21)OCO3`, the TGI in [1] was over 41 µM; in experiment [2], 2.6 µM; in experiment [3], 4.17 µM; in experiment [4], 8.21 µM; in experiment [5], 0.831 µM; in [6] it was 1.93 µM. The TGI in experiment [7] was 4.63 µM; in [8] it was 11.9 µM; in experiment [9] it was 3.79 µM; in experiment [10], 6.86 µM; in experiment [11], over 100 µM; in [12] it was 2.71 µM. Further, the TGI in experiment [13] is 3.26 µM; in experiment [14], 1.04 µM; in [15] it was 98.7 µM; in experiment [16], over 100 µM; in experiment [17], 2.13 µM; in experiment [18] it was 1.54 µM. Moreover, the TGI in experiment [19] is 1.57 µM.
Regarding `CCc1c2cc(OC)c(OC)cc2cc2c3cc(OC)c(OC)cc3cc[n+]12` (tested in a mixture with another compound), the TGI is over 83.1 µM in [1]; over 67 µM in experiment [2]; over 89.8 µM in [3]; over 100 µM in experiment [4]; 73.8 µM in experiment [5]; 34.3 µM in experiment [6]. The TGI in experiment [7] is over 100 µM; in experiment [8], 82.1 µM; in [9], 52 µM; in experiment [10] it was over 73.4 µM; in experiment [11] it was over 61.1 µM; in experiment [12] it was 48.8 µM. Further, the TGI was over 36.5 µM in experiment [13]; over 71.2 µM in experiment [14]; over 61.7 µM in [15]; 75.8 µM in experiment [16]; 57.2 µM in [17]; 60.5 µM in experiment [18]. The TGI in [19] is over 54.8 µM.
For `COc1ccc(C[C@@H](C(=O)NCCNC(=O)C(CC(C)C)N(C)C(=O)[C@@H]2CCCN2C(=O)[C@H](C)O)N(C)C(=O)[C@@H]2CCCN2C(=O)[C@H](CC(C)C)NC(=O)C(C)NC(=O)OCc2ccccc2)cc1` (stereo not given in full) (Cbz-[ξA]LP[NMeY](Me)-{Ethylenediamine-ξNMeL-Pro-Lac}), the TGI in experiment [1], in experiment [2], in experiment [3], in experiment [4], in experiment [5] and in experiment [6] was over 100 µM in each case. The TGI in [7], in experiment [8], in experiment [9], in [10], in experiment [11] and in experiment [12] was over 100 µM throughout. The TGI in [13], in experiment [14], in [15], in experiment [16], in experiment [17] and in experiment [18] was over 100 µM each time. The compound further displayed a TGI in experiment [19] of over 100 µM.
In the case of `O=C(CC(O)(C(F)(F)F)C(F)(F)Cl)CC(O)(C(F)(F)F)C(F)(F)Cl` (stereo not given), the TGI was 7.37 µM in [1]; over 10 µM in experiment [2]; 9.14 µM in [3]; 9.9 µM in experiment [4]; over 10 µM in experiment [5]; 8.78 µM in experiment [6]. Moreover, the TGI in experiment [8] was over 10 µM; in [9], over 10 µM; in [10], over 10 µM; in experiment [11], 9.5 µM; in experiment [12], 5.43 µM; in experiment [13], over 10 µM. The TGI is over 10 µM in [14]; over 10 µM in experiment [15]; over 10 µM in [16]; 8.39 µM in experiment [17]; 4.34 µM in [18]; over 10 µM in experiment [19].
`CCN(CC)Cc1ccccc1CC(=O)N1c2ccccc2C(=O)Nc2cccnc21`: the TGI in experiment [1], in experiment [2], in [3], in experiment [4], in [5] and in experiment [6] was over 100 µM throughout. For the same compound, the TGI in [7], in [8], in [9], in [10], in [11] and in experiment [12] was over 100 µM each time. The TGI in [13], in experiment [14], in [15], in [16], in experiment [17] and in [18] was over 100 µM in each case. This compound also came in with a TGI in experiment [19] of over 100 µM.
